In ChEMBL document CHEMBL4613209, “Quinolone hybrids and their anti-cancer activities: An overview” (Eur J Med Chem, 2019) one finds IC50 data, which are given here for 24 molecules.

For test [1], the target named is RAC-beta serine/threonine-protein kinase (Homo sapiens, UniProt P31751). Nature of the test: Inhibition of PKBbeta (unknown origin).
In test [2] the target is T1, Inhibitor of nuclear factor kappa-B kinase subunit alpha (Homo sapiens, UniProt O15111).
T1 sequence (O15111 whole entry): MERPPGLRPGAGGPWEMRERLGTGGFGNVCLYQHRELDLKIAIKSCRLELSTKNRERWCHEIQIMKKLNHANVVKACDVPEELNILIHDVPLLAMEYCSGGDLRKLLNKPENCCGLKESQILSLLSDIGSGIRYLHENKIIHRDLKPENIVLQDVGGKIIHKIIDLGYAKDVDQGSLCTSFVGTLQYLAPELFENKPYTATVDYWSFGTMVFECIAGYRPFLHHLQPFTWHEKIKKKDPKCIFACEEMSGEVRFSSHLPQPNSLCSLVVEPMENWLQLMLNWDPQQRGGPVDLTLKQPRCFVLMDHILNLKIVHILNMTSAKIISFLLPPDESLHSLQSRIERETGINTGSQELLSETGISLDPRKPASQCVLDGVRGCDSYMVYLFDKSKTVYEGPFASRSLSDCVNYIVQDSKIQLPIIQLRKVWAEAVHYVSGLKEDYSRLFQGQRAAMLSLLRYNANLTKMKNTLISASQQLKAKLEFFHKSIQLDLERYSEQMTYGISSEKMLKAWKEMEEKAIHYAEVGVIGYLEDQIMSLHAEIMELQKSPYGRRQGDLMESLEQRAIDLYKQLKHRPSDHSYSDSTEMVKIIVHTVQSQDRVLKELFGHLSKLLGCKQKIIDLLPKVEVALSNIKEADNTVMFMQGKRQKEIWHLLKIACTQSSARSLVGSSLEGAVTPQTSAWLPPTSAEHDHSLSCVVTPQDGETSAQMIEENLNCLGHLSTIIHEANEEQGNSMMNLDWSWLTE
Nature of the test: Inhibition of IKKalpha (unknown origin).

Test [3] has as its target RAC-alpha serine/threonine-protein kinase (Homo sapiens, UniProt P31749). Nature of the test: Inhibition of PKBalpha (unknown origin).
Test [4] has as its target T2, Inhibitor of nuclear factor kappa-B kinase subunit beta (Homo sapiens, UniProt O14920).
T2 sequence (O14920 whole entry): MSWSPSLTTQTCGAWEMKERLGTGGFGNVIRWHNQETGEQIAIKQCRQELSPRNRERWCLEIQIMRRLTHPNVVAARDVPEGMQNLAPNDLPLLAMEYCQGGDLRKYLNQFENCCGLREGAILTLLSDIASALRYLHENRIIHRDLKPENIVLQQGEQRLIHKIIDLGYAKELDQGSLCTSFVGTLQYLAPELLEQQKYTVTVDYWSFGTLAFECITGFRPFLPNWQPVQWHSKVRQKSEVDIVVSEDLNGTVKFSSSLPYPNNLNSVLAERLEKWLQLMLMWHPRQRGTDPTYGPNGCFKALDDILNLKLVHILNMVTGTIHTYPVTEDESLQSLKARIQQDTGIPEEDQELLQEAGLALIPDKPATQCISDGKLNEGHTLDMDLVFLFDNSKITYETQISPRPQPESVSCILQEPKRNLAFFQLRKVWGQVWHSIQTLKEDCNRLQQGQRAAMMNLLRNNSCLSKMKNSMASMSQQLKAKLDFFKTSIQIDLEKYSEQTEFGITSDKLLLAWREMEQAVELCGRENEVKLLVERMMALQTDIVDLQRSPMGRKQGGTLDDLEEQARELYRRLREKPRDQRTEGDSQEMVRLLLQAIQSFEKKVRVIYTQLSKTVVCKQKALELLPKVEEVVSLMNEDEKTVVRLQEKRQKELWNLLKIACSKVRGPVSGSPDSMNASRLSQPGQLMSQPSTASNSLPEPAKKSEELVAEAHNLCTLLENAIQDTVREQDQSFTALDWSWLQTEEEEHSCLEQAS
Nature of the test: Inhibition of IKKbeta (unknown origin).

In test [5] the target is RAC-gamma serine/threonine-protein kinase (Homo sapiens, UniProt Q9Y243). Nature of the test: Inhibition of PKBgamma (unknown origin).
RAC-gamma serine/threonine-protein kinase, sequence (Q9Y243 whole entry): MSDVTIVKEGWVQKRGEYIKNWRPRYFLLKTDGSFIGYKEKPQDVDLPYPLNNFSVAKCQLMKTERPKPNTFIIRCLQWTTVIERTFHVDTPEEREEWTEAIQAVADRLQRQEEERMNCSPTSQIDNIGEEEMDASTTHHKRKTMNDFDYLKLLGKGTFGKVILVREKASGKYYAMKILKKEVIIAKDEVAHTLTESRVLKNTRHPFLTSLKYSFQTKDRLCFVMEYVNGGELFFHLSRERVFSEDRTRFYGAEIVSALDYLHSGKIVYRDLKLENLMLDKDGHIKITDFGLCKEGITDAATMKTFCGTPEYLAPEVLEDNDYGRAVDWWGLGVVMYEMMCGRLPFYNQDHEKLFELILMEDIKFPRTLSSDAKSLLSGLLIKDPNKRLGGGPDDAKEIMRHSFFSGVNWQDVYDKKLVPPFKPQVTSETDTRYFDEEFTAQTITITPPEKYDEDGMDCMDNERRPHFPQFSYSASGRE
Test [6] relates to A549. Nature of the test: Cytotoxicity against human A549 cells assessed as reduction in cell viability. The format is functional, cell-based.
Test [7] deals with MCF7. Nature of the test: Cytotoxicity against human MCF7 cells assessed as reduction in cell viability. The format is functional, cell-based.
The next test deals with T47D. Nature of the test: Cytotoxicity against human T47D cells assessed as reduction in cell viability after 48 hrs by MTT assay. The format is functional, cell-based. A general note: Tetrazolium assays rely on reduction of a dye to a coloured formazan, in cell work by metabolically active cells.
Another test deals with MDA-MB-231. Nature of the test: Cytotoxicity against human MDA-MB-231 cells assessed as reduction in cell viability after 48 hrs by MTT assay. The format is functional, cell-based. Conditions: MDA-MB-231, 48 h.
Test [8] relates to MCF7. Nature of the test: Cytotoxicity against human MCF7 cells assessed as reduction in cell viability after 48 hrs by MTT assay. The format is functional, cell-based. Conditions: MCF7, 48 h.
For test [9], the system named is A549. Nature of the test: Antiproliferative activity against human A549 cells by CCK8 assay. The format is functional, cell-based.
The subject of a further test is PC-3. Nature of the test: Antiproliferative activity against human PC3 cells by CCK8 assay. The format is functional, cell-based.
Another test has as its system HeLa. Nature of the test: Antiproliferative activity against human HeLa cells by CCK8 assay. The format is functional, cell-based.
Test [10] concerns MCF7. Nature of the test: Antiproliferative activity against human MCF7 cells by CCK8 assay. The format is functional, cell-based.
The test system of a further test is MCF-10A. Nature of the test: Antiproliferative activity against human MCF10A cells by CCK8 assay. The format is cell-based.
In another test the test system is HepG2. Nature of the test: Antiproliferative activity against human HepG2 cells by CCK8 assay. The format is functional, cell-based.
A further test deals with L1210. Nature of the test: Cytotoxicity against mouse L1210 cells assessed as reduction in cell viability. The format is functional, cell-based.
In the next test the test system is SMMC-7721. Nature of the test: Cytotoxicity against human SMMC7721 cells assessed as reduction in cell viability. The format is functional, cell-based.
Another test relates to HL-60. Nature of the test: Cytotoxicity against human HL60 cells assessed as reduction in cell viability. The format is functional, cell-based.

pIC50: −log10 of the molar value.

RAC-beta serine/threonine-protein kinase, sequence (P31751 whole entry): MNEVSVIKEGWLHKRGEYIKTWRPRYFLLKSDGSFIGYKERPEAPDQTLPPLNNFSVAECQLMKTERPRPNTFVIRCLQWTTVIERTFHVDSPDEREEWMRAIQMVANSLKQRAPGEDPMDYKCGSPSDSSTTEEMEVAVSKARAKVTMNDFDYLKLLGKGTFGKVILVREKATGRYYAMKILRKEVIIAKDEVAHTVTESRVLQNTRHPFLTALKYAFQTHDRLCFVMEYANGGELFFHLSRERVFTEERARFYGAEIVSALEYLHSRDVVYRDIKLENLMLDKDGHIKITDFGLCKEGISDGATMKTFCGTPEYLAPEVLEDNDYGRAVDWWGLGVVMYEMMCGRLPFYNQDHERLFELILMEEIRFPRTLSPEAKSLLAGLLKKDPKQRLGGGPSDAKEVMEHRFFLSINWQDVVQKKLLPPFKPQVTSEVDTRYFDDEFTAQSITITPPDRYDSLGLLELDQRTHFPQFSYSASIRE
RAC-alpha serine/threonine-protein kinase, sequence (P31749 whole entry): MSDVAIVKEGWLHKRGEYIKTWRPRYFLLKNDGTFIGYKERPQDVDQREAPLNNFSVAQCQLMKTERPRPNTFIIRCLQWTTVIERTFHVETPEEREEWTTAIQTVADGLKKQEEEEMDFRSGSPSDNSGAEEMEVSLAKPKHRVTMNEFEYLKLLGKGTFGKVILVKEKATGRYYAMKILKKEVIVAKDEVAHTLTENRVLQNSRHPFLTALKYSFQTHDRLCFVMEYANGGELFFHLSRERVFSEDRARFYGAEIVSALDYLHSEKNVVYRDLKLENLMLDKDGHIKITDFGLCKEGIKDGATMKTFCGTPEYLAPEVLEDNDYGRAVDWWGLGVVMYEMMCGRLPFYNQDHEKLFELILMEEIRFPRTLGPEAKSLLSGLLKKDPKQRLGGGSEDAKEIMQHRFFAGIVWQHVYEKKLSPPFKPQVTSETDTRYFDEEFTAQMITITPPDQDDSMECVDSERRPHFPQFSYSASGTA

Take `O=C(/C=C/c1nc2ccccc2[nH]1)c1c(O)nc2ccc(Cl)cc2c1-c1ccccc1`: the pIC50 in [1], in [2], in [3], in test [4] and in [5] was 4.35 to 5.79 each time.
For the molecule `O=C(/C=C(O)/C=C/c1cc2ccccc2[nH]c1=O)/C=C/c1cc2ccccc2[nH]c1=O`, the pIC50 is 4.50 with A549 [6] and 4.16 in the test on MCF7 [7].
Turning to `COc1ccc(Cn2cc(Cn3c4ccccc4c(=O)c4cc(OC)ccc43)nn2)cc1`, the pIC50 with T47D, in the test on MDA-MB-231 and in the test on MCF7 [8] was 4.78 to 4.96 each time.
For `O=C(/C=C/c1nc2cc(F)c(F)cc2[nH]1)c1c(-c2ccc(F)cc2)c2cc(Cl)ccc2[nH]c1=O`, the pIC50 in test [1], in [2], in test [3], in [4] and in [5] was 4.35 to 5.79 throughout.
As to `C[C@H]1COc2c(N3CCN(C)CC3)c(F)cc3c(=O)c(C(=O)OCc4cn(CCCCCCCC(=O)O)nn4)cn1c23`, the pIC50 with A549 [9] was 4.78 to 5.11; with PC-3, 4.78 to 5.11; in the test on HeLa, 4.78 to 5.11; with MCF7 [10] it was 4.78 to 5.11; in the test on MCF-10A, below 4.00; in the test with HepG2, 4.78 to 5.11.
For `C[C@H]1COc2c(N3CCN(C)CC3)c(F)cc3c(=O)c(C(=O)OCc4cn(CCCCCC(=O)O)nn4)cn1c23`, the pIC50 in the test on A549 [9] was 4.78 to 5.11; in the test with PC-3, 4.78 to 5.11; with HeLa, 4.78 to 5.11; with MCF7 [10], 4.78 to 5.11; in the test on MCF-10A it was below 4.00; in the test with HepG2 it was 4.78 to 5.11.
Regarding `O=C(/C=C/c1nc2ccccc2[nH]1)c1c(-c2ccccc2)c2cc(Br)ccc2[nH]c1=O`, the pIC50 in [1], in test [2], in [3], in test [4] and in test [5] was 4.35 to 5.79 each time.
Regarding `C[C@H]1COc2c(N3CCN(C)CC3)c(F)cc3c(=O)c(C(=O)NCc4cn(CCCCCC(=O)O)nn4)cn1c23`, the pIC50 with A549 [9] was 4.78 to 5.11; in the test on PC-3, 4.78 to 5.11; in the test with HeLa, 4.78 to 5.11; in the test with MCF7 [10] it was 4.78 to 5.11; with MCF-10A it was below 4.00; in the test with HepG2, 4.78 to 5.11.
Regarding `Cc1ccc2[nH]c(/C=C/C(=O)c3c(-c4ccccc4)c4cc(Cl)ccc4[nH]c3=O)nc2c1`, the pIC50 in [1], in test [2], in [3], in test [4] and in test [5] was 4.35 to 5.79 in each case.
Consider `O=C(/C=C/c1nc2cc(F)ccc2[nH]1)c1c(-c2ccc(F)cc2)c2cc(F)ccc2[nH]c1=O`, for which the pIC50 in [1], in test [2], in test [3], in [4] and in test [5] was 4.35 to 5.79 each time.
In the case of `CCn1cc(-c2nnc(SC/C(=N/NC(N)=S)c3ccc(Cl)cc3)[nH]2)c(=O)c2cc(F)c(N3CCN(C)CC3)cc21`, the pIC50 with L1210, with SMMC-7721 and in the test on HL-60 was 4.56 to 5.57 each time.
Turning to `Cc1ccc2[nH]c(=O)c(C(=O)/C=C/c3nc4ccccc4[nH]3)c(-c3ccccc3)c2c1`, the pIC50 in [1], in test [2], in [3], in test [4] and in test [5] was 4.35 to 5.79 in each case.
`O=C(/C=C/c1nc2cc(F)ccc2[nH]1)c1c(-c2ccccc2)c2cc(Cl)ccc2[nH]c1=O`: the pIC50 in [1], in test [2], in test [3], in [4] and in [5] was 4.35 to 5.79 in each case.
In the case of `O=C(/C=C/c1nc2cc(F)c(F)cc2[nH]1)c1c(-c2ccc(F)cc2)c2cc(F)ccc2[nH]c1=O`, the pIC50 in [1], in test [2], in [3], in test [4] and in [5] was 4.35 to 5.79 each time.
As to `C[C@H]1COc2c(N3CCN(C)CC3)c(F)cc3c(=O)c(C(=O)NCc4cn(CCCCCCC(=O)O)nn4)cn1c23`, the pIC50 with A549 [9] was 4.78 to 5.11; with PC-3, 4.78 to 5.11; in the test on HeLa, 4.78 to 5.11; with MCF7 [10], 4.78 to 5.11; in the test with MCF-10A, below 4.00; in the test with HepG2, 4.78 to 5.11.
As to `Cn1c(=O)c(C(=O)/C=C/c2nc3cc(F)ccc3[nH]2)c(-c2ccccc2)c2cc(Cl)ccc21`, the pIC50 in test [1], in [2], in [3], in [4] and in [5] was 4.35 to 5.79 each time.
`C[C@H]1COc2c(N3CCN(C)CC3)c(F)cc3c(=O)c(C(=O)OCc4cn(CCCCCCC(=O)O)nn4)cn1c23`: the pIC50 was 4.78 to 5.11 in the test with A549 [9]; 4.78 to 5.11 in the test with PC-3; 4.78 to 5.11 in the test with HeLa; 4.78 to 5.11 in the test on MCF7 [10]; below 4.00 in the test with MCF-10A; 4.78 to 5.11 with HepG2.
`O=C(/C=C/c1nc2ccccc2[nH]1)c1c(-c2ccccc2)c2ccccc2[nH]c1=O`: the pIC50 in test [1], in test [2], in [3], in test [4] and in test [5] was 4.35 to 5.79 in each case.
As for `C[C@H]1COc2c(N3CCN(C)CC3)c(F)cc3c(=O)c(C(=O)NCc4cn(CCCCCCCC(=O)O)nn4)cn1c23`, the pIC50 with A549 [9] is 4.78 to 5.11; in the test on PC-3, 4.78 to 5.11; in the test with HeLa, 4.78 to 5.11; in the test on MCF7 [10], 4.78 to 5.11; in the test with MCF-10A it was below 4.00; in the test on HepG2 it was 4.78 to 5.11.
Consider `O=C(/C=C/c1nc2cc(Br)ccc2[nH]1)c1c(-c2ccccc2)c2cc(Cl)ccc2[nH]c1=O`, for which the negative-log IC50 (pIC50) in test [1], in test [2], in test [3], in [4] and in [5] was 4.35 to 5.79 throughout.
As to `O=C(/C=C/c1nc2cc(F)c(F)cc2[nH]1)c1c(-c2ccc(F)c(F)c2)c2cc(F)ccc2[nH]c1=O`, the pIC50 in [1], in test [2], in test [3], in test [4] and in test [5] was 4.35 to 5.79 each time.
Turning to `CCn1cc(-c2nnc(SC/C(=N/NC(N)=S)c3ccc([N+](=O)[O-])cc3)[nH]2)c(=O)c2cc(F)c(N3CCN(C)CC3)cc21`, the negative logarithm of the IC50 (pIC50) in the test on L1210, in the test on SMMC-7721 and with HL-60 was 4.56 to 5.57 in each case.
Take `C[C@H]1COc2c(N3CCN(C)CC3)c(F)cc3c(=O)c(C(=O)O)cn1c23` [LEVOFLOXACIN]: the pIC50 is 4.00 to 4.19 in the test on A549 [9]; 4.00 to 4.19 in the test on PC-3; 4.00 to 4.19 in the test on HeLa; 4.00 to 4.19 in the test with MCF7 [10]; 4.60 in the test with MCF-10A; 4.00 to 4.19 with HepG2.
For `CCn1cc(C(=O)O)c(=O)c2cc(F)c(N3CCN(C)CC3)cc21` [PEFLOXACIN], the pIC50 in the test on L1210, in the test on SMMC-7721 and with HL-60 was below 4.00 throughout.

As usually defined, the pIC50 is −log10 of the IC50, conventionally taken in molar units.
